Patent US20170121315A1, “HETEROBICYCLICALLY SUBSTITUTED 4-OXOBUTANE ACID DERIVATIVES AND USE THEREOF” (priority 2014, published 2017)

Experiments:
rat hepatocytes = experiment: Hepatocyte assay for determination of metabolic stability; assay type: in vitro ADME; conditions: after incubation with rat hepatocytes
Procedure: The metabolic stability of test compounds towards hepatocytes is determined by incubating the compounds at low concentrations (preferably below or around 1 μM) and at low cell counts (preferably at 1*10^6 cells/ml) in order to ensure maximum linearity of kinetic conditions in the experiment. Seven samples from the incubation solution are taken for the LC-MS analysis within a fixed time pattern, in order to determine the half-life (i.e. the degradation) of the particular compound. This half-life is used to calculate various “Clearance” parameters (CL) and “Fmax” values (see below).
The CL and Fmax values are a measure of the phase 1 and phase 2 metabolism of the compounds in the hepatocytes. In order to minimize the influence of the organic solvent on the enzymes in the incubation batches, the concentration thereof is generally limited to 1% (acetonitrile) or 0.1% (DMSO).
For all species and breeds, a hepatocyte cell count in the liver of 1.1*10^8 cells/g of liver is expected.

MMP-10 = target: T1, MMP-10 (Homo sapiens, UniProt P09238); experiment: In vitro MMP-10 inhibition test; assay type: biochemical; conditions: human MMP-10
T1 construct: purchased R&D Systems 910-MP
Text: (§1) The MMP-mediated amidolytic cleavage of a suitable peptide substrate leads to an increase in fluorescent light here too. The signal intensity of the fluorescent light is directly proportional to the enzyme activity. The active concentration of a test compound at which half the enzyme is inhibited (50% signal intensity of the fluorescent light) is reported as the IC50 value.
(§2) Recombinant MMP-10 (R&D Systems, 910-MP) is chemically activated in accordance with the manufacturer's instructions using APMA. 1 μl of the test compound to be analysed (as a solution in DMSO, suitable concentrations e.g. 1 nM to 30 μM) is pipetted into 24 μl of activated enzyme (final concentration e.g. 2 nM) in reaction buffer (50 mM Tris/HCl pH 7.5, 10 mM CaCl2, 150 mM NaCl, 0.05% Brij®-35) in a white 384-hole microtiter plate (MTP). The enzymatic reaction is started by adding the intramolecularly quenched Mca-Arg-Pro-Lys-Pro-Val-Glu-Nval-Trp-Arg-Lys(Dnp)-NH2 substrate (final concentration e.g. 10 μM; R&D Systems, ES-002), so as to result in a total test volume of 50 μl. The course of the MMP-10 reaction is measured by measuring the fluorescence intensity (excitation 320 nm, emission 410 nm) over a suitable period of time (e.g. over 120 min at a temperature of 32° C.).

[1] = target: T2, human macrophage elastase (HME/hMMP-12) (Homo sapiens, UniProt P39900); experiment: In vitro HME inhibition test (standard or high-sensitivity); assay type: biochemical; conditions: in some cases mean values, rounded to two significant figures
T2 construct: purchased R&D Systems 917-MP
Summary of the method: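 Autoactivated HME (0.5 nM; high-sensitivity format 0.05 nM, ~16 h) with 5 μM quenched Mca-PLGLEEA-Dap(Dnp)-NH2 substrate in HEPES pH 7.4, NaCl, CaCl2, ZnCl2, EDTA, Brij buffer, 2 h at 37° C. Fluorescence at ex 323/em 393 nm; IC50 from signal versus concentration.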

MMP-7 = target: T3, MMP-7 (Homo sapiens, UniProt P09237); experiment: In vitro MMP-7 inhibition test; assay type: biochemical; conditions: human MMP-7
T3 construct: purchased R&D Systems 907-MP
T3 sequence (P09237 95-267): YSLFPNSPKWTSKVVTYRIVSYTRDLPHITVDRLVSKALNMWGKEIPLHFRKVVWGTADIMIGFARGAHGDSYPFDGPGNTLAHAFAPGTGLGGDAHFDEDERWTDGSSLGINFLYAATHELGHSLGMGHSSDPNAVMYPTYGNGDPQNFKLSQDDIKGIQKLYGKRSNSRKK
Text: as §1
as §2, with “Recombinant MMP-7 (from R&D” for “Recombinant MMP-10 (R&D”, “Systems, 907-MP)” for “Systems, 910-MP)”, “e.g. 0.5” for “e.g. 2”, “quenched Mca-Pro-Leu-Gly-Leu-Dpa(Dnp)-Ala-Arg-NH2” for “quenched Mca-Arg-Pro-Lys-Pro-Val-Glu-Nval-Trp-Arg-Lys(Dnp)-NH2”, “Systems, ES-001),” for “Systems, ES-002),”, “the MMP-7” for “the MMP-10”

T2 sequence (P39900 106-470): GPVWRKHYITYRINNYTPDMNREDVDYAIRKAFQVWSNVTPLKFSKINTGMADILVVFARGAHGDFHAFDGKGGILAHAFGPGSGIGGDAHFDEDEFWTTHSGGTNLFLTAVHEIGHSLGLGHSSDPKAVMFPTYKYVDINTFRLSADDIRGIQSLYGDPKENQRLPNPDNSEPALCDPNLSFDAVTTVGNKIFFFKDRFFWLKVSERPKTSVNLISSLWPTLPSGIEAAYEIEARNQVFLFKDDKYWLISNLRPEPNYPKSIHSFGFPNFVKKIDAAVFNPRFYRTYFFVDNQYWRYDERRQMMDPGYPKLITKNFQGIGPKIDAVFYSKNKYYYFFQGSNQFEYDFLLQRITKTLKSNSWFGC
T1 sequence (P09238 99-476): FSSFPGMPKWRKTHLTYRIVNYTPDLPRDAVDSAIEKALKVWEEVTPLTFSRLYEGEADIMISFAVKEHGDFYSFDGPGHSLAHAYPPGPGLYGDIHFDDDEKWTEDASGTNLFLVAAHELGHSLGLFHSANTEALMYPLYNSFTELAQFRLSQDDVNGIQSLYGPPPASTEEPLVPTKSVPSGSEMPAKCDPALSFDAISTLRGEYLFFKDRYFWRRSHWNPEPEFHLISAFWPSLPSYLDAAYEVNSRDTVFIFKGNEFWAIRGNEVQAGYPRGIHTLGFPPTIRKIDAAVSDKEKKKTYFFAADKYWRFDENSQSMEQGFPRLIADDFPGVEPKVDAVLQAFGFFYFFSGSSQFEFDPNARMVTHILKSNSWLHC

SMILES	CLblood (calculated blood clearance, well-stirred) (rat hepatocytes) [mL/min/kg]	Fmax (maximum possible bioavailability after oral administration, well-stirred) (rat hepatocytes) [%]	IC50 (MMP-10) [µM]	IC50 [1] [nM]	IC50 (MMP-7) [µM]
O=C(CC(CCn1nnc2ccc(C(F)(F)F)cc2c1=O)C(=O)O)c1noc2cc(OCc3ccccc3)ccc12 (racemic) [Example 154, (+/−)-4-[6-(Benzyloxy)-1,2-benzoxazol-3-yl]-4-oxo-2-{2-[4-oxo-6-(trifluoromethyl)-1,2,3-benzotriazin-3(4H)-yl]ethyl}butanoic acid]	20.3	70.9	3.3	0.75	18
O=C(C[C@H](CCn1nnc2ccccc2c1=O)C(=O)O)c1noc2cc(OCC3CCOCC3)ccc12 (single isomer, unassigned; enantiomer 2) [Example 135]	22.7	67.5	9	0.16	> 40
O=C(CC(CCn1nnc2ccccc2c1=O)C(=O)O)c1noc2cc(OCCc3ccccc3)ccc12 (racemic) [Example 144, (+/−)-4-Oxo-2-[2-(4-oxo-1,2,3-benzotriazin-3(4H)-yl)ethyl]-4-[6-(2-phenylethoxy)-1,2-benzoxazol-3-yl]butanoic acid]	29	58.6	29	1.4	> 40
CCCCCCCOc1ccc2c(C(=O)CC(CCn3nnc4ccccc4c3=O)C(=O)O)coc2c1 (racemic) [Example 101, (+/−)-4-[6-(Heptyloxy)-1-benzofur-3-yl]-4-oxo-2-[2-(4-oxo-1,2,3-benzotriazin-3(4H)-yl)ethyl]butanoic acid]			> 40	0.53	> 40
O=C(CC(CCn1nnc2ccccc2c1=O)C(=O)O)c1cc2cc(OCc3ccccc3)ccc2o1 (single isomer, unassigned; (+)) [Example 30, (+)-4-[5-(Benzyloxy)-1-benzofur-2-yl]-4-oxo-2-[2-(4-oxo-1,2,3-benzotriazin-3(4H)-yl)ethyl]butanoic acid]			30	0.99	> 40
CCCOc1ccc2cc(C(=O)CC(CCn3nnc4ccccc4c3=O)C(=O)O)oc2c1 (racemic) [Example 58, (+/−)-4-Oxo-2-[2-(4-oxo-1,2,3-benzotriazin-3(4H)-yl)ethyl]-4-(6-propoxy-1-benzofur-2-yl)butanoic acid]			> 40	5	> 40
O=C(CC(CCn1nnc2ccccc2c1=O)C(=O)O)c1cc2ccc(OCCc3ccccc3)cc2s1 (racemic) [Example 114, (+/−)-4-Oxo-2-[2-(4-oxo-1,2,3-benzotriazin-3(4H)-yl)ethyl]-4-[6-(2-phenylethoxy)-1-benzothiophen-2-yl]butanoic acid]			3.4	0.3	5.3
O=C(CC(CCn1nnc2ccccc2c1=O)C(=O)O)c1cc2cc(OCC3CCCCC3)ccc2o1 (racemic) [Example 8, (+/−)-4-[5-(Cyclohexylmethoxy)-1-benzofur-2-yl]-4-oxo-2-[2-(4-oxo-1,2,3-benzotriazin-3(4H)-yl)ethyl]butanoic acid]			> 40	2	> 40
Cc1cccc(COc2ccc3oc(C(=O)CC(CCn4nnc5ccccc5c4=O)C(=O)O)cc3c2)c1 (racemic) [Example 51, (+/−)-4-{5-[(3-Methylbenzyl)oxy]-1-benzofur-2-yl}-4-oxo-2-[2-(4-oxo-1,2,3-benzotriazin-3(4H)-yl)ethyl]butanoic acid]			36	4.1	35
O=C(CC(CCn1nnc2ccccc2c1=O)C(=O)O)c1cc2cc(OCc3cccc(Cl)c3)ccc2o1 (racemic) [Example 50, (+/−)-4-{5-[(3-Chlorobenzyl)oxy]-1-benzofur-2-yl}-4-oxo-2-[2-(4-oxo-1,2,3-benzotriazin-3(4H)-yl)ethyl]butanoic acid]			20	1.6	> 40
O=C(CC(CCn1nnc2ccccc2c1=O)C(=O)O)c1cc2ccc(OCC3CC3)cc2s1 (racemic) [Example 111, (+/−)-4-[6-(Cyclopropylmethoxy)-1-benzothiophen-2-yl]-4-oxo-2-[2-(4-oxo-1,2,3-benzotriazin-3(4H)-yl)ethyl]butanoic acid]			4.7	3.3	4.1
O=C(CC(CCn1nnc2ccccc2c1=O)C(=O)O)c1coc2cc(OCCC3CCCC3)ccc12 (racemic) [Example 75, (+/−)-4-[6-(2-Cyclopentylethoxy)-1-benzofur-3-yl]-4-oxo-2-[2-(4-oxo-1,2,3-benzotriazin-3(4H)-yl)ethyl]butanoic acid]			7.7	0.22	> 40
O=C(CC(CCn1nnc2ccccc2c1=O)C(=O)O)c1cc2cc(OCc3ccc(C(F)(F)F)cc3)ccc2o1 (racemic) [Example 44, (+/−)-4-Oxo-2-[2-(4-oxo-1,2,3-benzotriazin-3(4H)-yl)ethyl]-4-(5-{[4-(trifluoromethyl)benzyl]oxy}-1-benzofur-2-yl)butanoic acid]			29	0.62	> 40
CCCCCOc1ccc2cc(C(=O)CC(CCn3nnc4ccccc4c3=O)C(=O)O)sc2c1 (racemic) [Example 118, (+/−)-4-Oxo-2-[2-(4-oxo-1,2,3-benzotriazin-3(4H)-yl)ethyl]-4-[6-(pentyloxy)-1-benzothiophen-2-yl]butanoic acid]			10	2.7	30
O=C(CC(CCn1nnc2ccccc2c1=O)C(=O)O)c1cc2cc(OCCC3CCCC3)ccc2o1 (racemic) [Example 7, (+/−)-4-[5-(2-Cyclopentylethoxy)-1-benzofur-2-yl]-4-oxo-2-[2-(4-oxo-1,2,3-benzotriazin-3(4H)-yl)ethyl]butanoic acid]			9.3	2.8	> 40
O=C(CC(CCn1nnc2ccccc2c1=O)C(=O)O)c1cc2ccc(OCCCC3CCCCC3)cc2o1 (racemic) [Example 71, (+/−)-4-[6-(3-Cyclohexylpropoxy)-1-benzofur-2-yl]-4-oxo-2-[2-(4-oxo-1,2,3-benzotriazin-3(4H)-yl)ethyl]butanoic acid]			> 40	2.2	> 40
O=C(CC(CCn1nnc2ccccc2c1=O)C(=O)O)c1noc2cc(OCc3cccnc3)ccc12 (racemic) [Example 148, (+/−)-4-Oxo-2-[2-(4-oxo-1,2,3-benzotriazin-3(4H)-yl)ethyl]-4-[6-(pyridin-3-ylmethoxy)-1,2-benzoxazol-3-yl]butanoic acid]			0.2	1.8	> 40
O=C(CC(CCn1nnc2ccccc2c1=O)C(=O)O)c1coc2cc(OCC3CCCCC3)ccc12 (single isomer, unassigned; (+)) [Example 82, (+)-4-[6-(Cyclohexylmethoxy)-1-benzofur-3-yl]-4-oxo-2-[2-(4-oxo-1,2,3-benzotriazin-3(4H)-yl)ethyl]butanoic acid]			6.8	0.089	> 40
